Strand notation (5' to 3'): a small letter for the sugar, then the base; units joined by * are phosphorothioate-linked, units joined directly phosphodiester-linked; [ ] holds rarer units or linkages, { } end groups; capitals alone tell only the bases. k = constrained ethyl (cEt); [5mC] = 5-methylcytosine; d = 2'-deoxy (DNA)
System: Yap1 mRNA
Assay: Antisense inhibition of human Yap1 in A-431 cells by cEt gapmers, single dose (Example 3, RTS36584)
Type: cell-based
Settings: Table 26; Yap1 mRNA by 3-10-3 cEt gapmers targeting SEQ ID NO.: 1, and 2; percent of untreated control
Summary of the method: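 A-431 cells were treated by free uptake with 2,000 nM modified oligonucleotide (3-10-3 cEt gapmers, full phosphorothioate, 5-methylcytosines) for about 48 hours. Yap1 mRNA was quantified by real-time RT-PCR, normalized to RiboGreen total RNA, and expressed as % of untreated control; asterisked values mark oligonucleotides targeting the amplicon region.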

**Q.** Which “YAP1 (% UTC)” value does the source give for “1074412 (k[5mC]*kT*kG*dT*dG*dA*dA*dA*dG*dA*dG*dG*dT*k[5mC]*kA*kG; antisense) [compound 1074412]” here?
**A.** The value was 55 % UTC.

**Q.** Which “YAP1 (% UTC)” value does the source give for “1074476 (kT*kT*k[5mC]*d[5mC]*dG*dA*d[5mC]*dA*dA*dA*dA*d[5mC]*d[5mC]*kA*kA*k[5mC]; antisense) [compound 1074476]” here?
**A.** Its value is 18 % UTC.

**Q.** “1074540 (kA*k[5mC]*kT*dA*dT*d[5mC]*d[5mC]*dA*d[5mC]*dA*dG*dT*dA*kA*kT*kA; antisense) [compound 1074540]” was tested. Which “YAP1 (% UTC)” value did it give?
**A.** The value was 26 % UTC.

**Q.** How did the “YAP1 (% UTC)” value turn out when “1074572 (DNA kT*kT*kA*dT*dG*dA*dA*d[5mC]*d[5mC]*dT*dA*d[5mC]*dT*k[5mC]*kA*k[5mC]) [compound 1074572]” was run?
**A.** Its value is 17 % UTC.

**Q.** How did the “YAP1 (% UTC)” value turn out when “1074604 (DNA kT*kT*kA*dT*dT*dA*dA*dT*d[5mC]*dT*dG*dA*dT*k[5mC]*kA*k[5mC]) [compound 1074604]” was run?
**A.** The value was 12 % UTC.

**Q.** For “1074636 (antisense kA*kT*k[5mC]*dT*dA*dT*d[5mC]*dT*dT*d[5mC]*d[5mC]*d[5mC]*dA*kA*kG*k[5mC]) [compound 1074636]”, which “YAP1 (% UTC)” value is on record?
**A.** Its value is 56 % UTC.

**Q.** “1074668 (antisense kT*k[5mC]*k[5mC]*d[5mC]*dA*dA*d[5mC]*dA*dA*d[5mC]*dA*dT*dG*k[5mC]*kT*kA) [compound 1074668]” was tested. Which “YAP1 (% UTC)” value did it give?
**A.** Its value is 20 % UTC.

**Q.** How did the “YAP1 (% UTC)” value turn out when “1074700 (antisense kG*kT*kA*dA*dG*dA*d[5mC]*dA*dA*dG*dT*d[5mC]*dT*kT*kT*kA) [compound 1074700]” was run?
**A.** Its value is 26 % UTC.

Same assay, conditions: Table 27; Yap1 mRNA by 3-10-3 cEt gapmers targeting SEQ ID NO.: 1, and 2; percent of untreated control

**Q.** For “1074541 (k[5mC]*kA*k[5mC]*dT*dA*dT*d[5mC]*d[5mC]*dA*d[5mC]*dA*dG*dT*kA*kA*kT; antisense) [compound 1074541]”, which “YAP1 (% UTC)” value is on record?
**A.** The value was 23 % UTC.

**Q.** “1074573 (DNA kA*kT*kT*dA*dT*dG*dA*dA*d[5mC]*d[5mC]*dT*dA*d[5mC]*kT*k[5mC]*kA) [compound 1074573]” was tested. Which “YAP1 (% UTC)” value did it give?
**A.** The value was 14 % UTC.

**Q.** “1074605 (DNA kT*k[5mC]*kA*dA*d[5mC]*dT*dA*d[5mC]*d[5mC]*dA*dA*dT*dA*kT*kA*k[5mC]) [compound 1074605]” was tested. Which “YAP1 (% UTC)” value did it give?
**A.** Its value is 20 % UTC.

**Q.** With “1074637 (antisense kA*kA*kT*d[5mC]*dT*dA*dT*d[5mC]*dT*dT*d[5mC]*d[5mC]*d[5mC]*kA*kA*kG) [compound 1074637]” as the substance, how does the “YAP1 (% UTC)” value read?
**A.** The value was 36 % UTC.

**Q.** With “1074669 (antisense kA*kT*k[5mC]*d[5mC]*d[5mC]*dA*dA*d[5mC]*dA*dA*d[5mC]*dA*dT*kG*k[5mC]*kT) [compound 1074669]” as the substance, how does the “YAP1 (% UTC)” value read?
**A.** Its value is 13 % UTC.

**Q.** “1074701 (antisense kG*kT*kG*dT*dA*dA*dG*dA*d[5mC]*dA*dA*dG*dT*k[5mC]*kT*kT) [compound 1074701]” was tested. Which “YAP1 (% UTC)” value did it give?
**A.** The value was 17 % UTC.

Same assay, conditions: Table 28; Yap1 mRNA as percent of untreated control; 3-10-3 cEt gapmers targeting SEQ ID NO.: 1, and 2

**Q.** For “1074478 (k[5mC]*k[5mC]*kT*dA*dG*dG*dT*dT*d[5mC]*d[5mC]*dG*dA*d[5mC]*kA*kA*kA; antisense) [compound 1074478]”, which “YAP1 (% UTC)” value is on record?
**A.** The value was 69 % UTC.

**Q.** “1074510 (kA*kT*kA*d[5mC]*dA*dT*dT*d[5mC]*d[5mC]*dA*d[5mC]*dT*dA*k[5mC]*k[5mC]*kA; antisense) [compound 1074510]” was tested. Which “YAP1 (% UTC)” value did it give?
**A.** Its value is 10 % UTC.

**Q.** “1074542 (kA*kG*kG*d[5mC]*dA*d[5mC]*dT*dA*dT*d[5mC]*d[5mC]*dA*d[5mC]*kA*kG*kT; antisense) [compound 1074542]” was tested. Which “YAP1 (% UTC)” value did it give?
**A.** Its value is 21 % UTC.

**Q.** For “1074574 (DNA k[5mC]*kA*kT*dT*dA*dT*dG*dA*dA*d[5mC]*d[5mC]*dT*dA*k[5mC]*kT*k[5mC]) [compound 1074574]”, which “YAP1 (% UTC)” value is on record?
**A.** The value was 17 % UTC.

**Q.** Which “YAP1 (% UTC)” value does the source give for “1074670 (antisense kA*kA*kG*dT*dA*dG*d[5mC]*dT*dT*dT*dG*dA*dT*k[5mC]*kT*kT) [compound 1074670]” here?
**A.** The value was 49 % UTC.

**Q.** For “1074702 (antisense kG*kG*kT*dG*dT*dA*dA*dG*dA*d[5mC]*dA*dA*dG*kT*k[5mC]*kT) [compound 1074702]”, which “YAP1 (% UTC)” value is on record?
**A.** Its value is 16 % UTC.

Same assay, conditions: Table 29; Yap1 mRNA as percent of untreated control; 3-10-3 cEt gapmers targeting SEQ ID NO.: 1, and 2

**Q.** For “1074415 (kG*k[5mC]*k[5mC]*dA*dA*d[5mC]*dT*dG*dT*dG*dA*dA*dA*kG*kA*kG; antisense) [compound 1074415]”, which “YAP1 (% UTC)” value is on record?
**A.** Its value is 10 % UTC.

**Q.** Which “YAP1 (% UTC)” value does the source give for “1074511 (kG*kA*kT*dA*d[5mC]*dA*dT*dT*d[5mC]*d[5mC]*dA*d[5mC]*dT*kA*k[5mC]*k[5mC]; antisense) [compound 1074511]” here?
**A.** The value was 9 % UTC.

**Q.** How did the “YAP1 (% UTC)” value turn out when “1074543 (k[5mC]*k[5mC]*kT*dA*dG*dG*d[5mC]*dA*d[5mC]*dT*dA*dT*d[5mC]*k[5mC]*kA*k[5mC]; antisense) [compound 1074543]” was run?
**A.** Its value is 57 % UTC.

**Q.** How did the “YAP1 (% UTC)” value turn out when “1074575 (DNA kA*k[5mC]*kA*dT*dT*dA*dT*dG*dA*dA*d[5mC]*d[5mC]*dT*kA*k[5mC]*kT) [compound 1074575]” was run?
**A.** The value was 14 % UTC.

**Q.** Which “YAP1 (% UTC)” value does the source give for “1074671 (antisense k[5mC]*kA*kA*dG*dT*dA*dG*d[5mC]*dT*dT*dT*dG*dA*kT*k[5mC]*kT) [compound 1074671]” here?
**A.** Its value is 8 % UTC.

**Q.** How did the “YAP1 (% UTC)” value turn out when “1074703 (antisense k[5mC]*kG*kG*dT*dG*dT*dA*dA*dG*dA*d[5mC]*dA*dA*kG*kT*k[5mC]) [compound 1074703]” was run?
**A.** Its value is 16 % UTC.

Same assay, conditions: Table 34; Yap1 mRNA as percent of untreated control; 3-10-3 cEt gapmers targeting SEQ ID NO: 1 and 2; single dose

**Q.** “1074516 (kT*kT*kA*dA*d[5mC]*dT*dG*dG*dA*dA*dA*dG*d[5mC]*kA*kG*kG; antisense) [compound 1074516]” was tested. Which “YAP1 (% UTC)” value did it give?
**A.** Its value is 22 % UTC.

**Q.** “1074612 (DNA kA*kT*kA*dG*d[5mC]*dT*dT*dA*dT*dA*dT*dT*dG*kA*kA*kG; further chemistry not given here) [compound 1074612]” was tested. Which “YAP1 (% UTC)” value did it give?
**A.** Its value is 12 % UTC.

**Q.** “1074644 (antisense kA*kT*kT*dG*dA*dA*dG*dG*dG*d[5mC]*d[5mC]*dA*dA*kA*kA*kT) [compound 1074644]” was tested. Which “YAP1 (% UTC)” value did it give?
**A.** The value was 93 % UTC.

**Q.** With “1074708 (antisense k[5mC]*kT*kT*dT*dA*dA*dT*dG*dG*d[5mC]*dA*dG*d[5mC]*kA*k[5mC]*kG) [compound 1074708]” as the substance, how does the “YAP1 (% UTC)” value read?
**A.** Its value is 55 % UTC.

Same assay, conditions: Table 35; Yap1 mRNA as percent of untreated control; 3-10-3 cEt gapmers targeting SEQ ID NO: 1 and 2; single dose

**Q.** For “1074389 (kG*k[5mC]*kA*dG*dA*d[5mC]*dT*dT*dG*dG*d[5mC]*dA*dT*k[5mC]*kA*kG; antisense) [compound 1074389]”, which “YAP1 (% UTC)” value is on record?
**A.** The value was 14 % UTC.

**Q.** “1074517 (kA*kA*kT*dG*d[5mC]*dA*dT*dA*d[5mC]*dA*dA*dA*dG*k[5mC]*kG*k[5mC]; antisense) [compound 1074517]” was tested. Which “YAP1 (% UTC)” value did it give?
**A.** The value was 55 % UTC.

**Q.** How did the “YAP1 (% UTC)” value turn out when “1074581 (DNA kA*kA*k[5mC]*d[5mC]*dA*d[5mC]*dT*dA*dT*dA*dA*dA*dG*k[5mC]*kT*kT; antisense) [compound 1074581]” was run?
**A.** The value was 18 % UTC.

**Q.** Which “YAP1 (% UTC)” value does the source give for “1074645 (antisense kA*kA*kT*dT*dG*dA*dA*dG*dG*dG*d[5mC]*d[5mC]*dA*kA*kA*kA) [compound 1074645]” here?
**A.** Its value is 81 % UTC.

**Q.** How did the “YAP1 (% UTC)” value turn out when “1074677 (antisense k[5mC]*kT*kA*d[5mC]*dT*dG*dG*d[5mC]*dA*dA*dA*dT*dT*kA*kT*kA) [compound 1074677]” was run?
**A.** The value was 22 % UTC.

**Q.** How did the “YAP1 (% UTC)” value turn out when “1074709 (antisense kT*k[5mC]*kT*dA*dG*dA*dA*d[5mC]*dA*dG*d[5mC]*dT*dG*k[5mC]*k[5mC]*kT) [compound 1074709]” was run?
**A.** Its value is 71 % UTC.
